# Assay results reported in patent publication US7935724B2, “Thiophene and benzothiophene hydroxamic acid derivatives” (Merck HDAC Research, LLC, priority 2003, dated 2011).
# Read-outs that look alike come from different tables or passages of the source.
# Legend:
# [1] = target: T1, histone deacetylase, subtype 1 (HDAC1) (Homo sapiens, UniProt Q13547); test: HDAC1-Flag assay (in vitro deacetylation assay); format: biochemical; details: concentration for 50% inhibition of deacetylation, substrate at Km, unit inferred, text gives nm, read-out: HDAC Inhibition
# T1 construct: Flag; made in house
# T1 sequence (Q13547 whole entry): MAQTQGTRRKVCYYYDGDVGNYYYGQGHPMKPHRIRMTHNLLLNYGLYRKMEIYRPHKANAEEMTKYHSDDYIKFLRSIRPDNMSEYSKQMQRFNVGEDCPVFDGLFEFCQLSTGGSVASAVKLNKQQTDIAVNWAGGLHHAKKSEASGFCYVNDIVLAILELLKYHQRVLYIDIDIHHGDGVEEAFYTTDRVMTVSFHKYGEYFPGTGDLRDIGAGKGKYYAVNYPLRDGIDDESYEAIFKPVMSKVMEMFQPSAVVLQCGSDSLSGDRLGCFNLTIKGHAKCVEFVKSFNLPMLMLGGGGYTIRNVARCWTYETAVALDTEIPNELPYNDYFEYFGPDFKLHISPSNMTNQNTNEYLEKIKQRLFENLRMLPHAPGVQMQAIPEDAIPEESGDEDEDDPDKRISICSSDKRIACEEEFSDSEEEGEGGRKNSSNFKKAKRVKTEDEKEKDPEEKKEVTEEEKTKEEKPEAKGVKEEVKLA
# Protocol: Novel compounds were tested for their ability to inhibit histone deacetylase, subtype 1 (HDAC1) using an in vitro deacetylation assay. The enzyme source for this assay was an epitope-tagged human HDAC1 complex immuno-purified from stably expressing mammalian cells. The substrate consisted of a commercial product containing an acetylated lysine side chain (BIOMOL Research Laboratories, Inc., Plymouth Meeting, Pa.). Upon deacetylation of the substrate by incubation with the purified HDAC1 complex, a fluorophore is produced that is directly proportional to the level of deacetylation.
# [2] = tested on: murine erythroleukemia cell line SC9; test: MTS assay (Cell Titer 96 Aqueous One Solution Cell Proliferation Assay); format: cell-based; details: unit inferred, unit nm
# Protocol: The novel compounds of the present invention were tested for their ability to inhibit proliferation of the murine erythroleukemia cell line SC9.
# The MTS assay, also referred to as the Cell Titer 96 Aqueous One Solution Cell Proliferation Assay, is a calorimetric method for determining the number of viable cells in proliferation, cytotoxicity or chemosensitivity assays. The MTS reagent contains a novel tetrazolium compound [3-(4,5-dimethylthiazol-2-yl)-5-(3-carboxymethoxyphenyl)-2-(4-sulfophenyl)-2H-tetrazolium, inner salt] and electron coupling reagent (phenazine ethosulfate;PES). Murine erythroleukemia cells (SC-9) were incubated with vehicle or increasing concentrations of compound for 48 hours. Cell proliferation was quantitated by adding a small amount of the MTS reagent directly to culture wells, incubating for 1-4 hours and then recording the absorbance at 490 nm with a 96-well plate reader. The quantity of formazan product, as measured by […] absorbance, is directly proportional to the number of living cells in culture.
# [3] = Table 1, benzothiophene backbone
# [4] = Mus musculus, SC9, 48 h, Table 3, concentration inhibiting proliferation of SC9 cells
SMILES,"IC50 [1, 3] [nM]",other results
O=C(NO)c1cc2cc(CNCCCCc3ccccc3)ccc2s1 [Compound 156],275 ± 34.6,"IC50 [2, 4]: 966 nM"
O=C(NO)c1cc2cc(CNCCC(c3ccccc3)c3ccccc3)ccc2s1 [Compound 155],967 ± 215,"IC50 [2, 4]: 390 nM"
O=C(NO)c1cc2cc(CNCCCc3ccccc3)ccc2s1 [Compound 154],163 ± 37.4,"IC50 [2, 4]: 637 nM"
O=C(NO)c1cc2cc(NC(=O)c3cccc4ccccc34)ccc2s1 [Compound 25],140 ± 14.1,"IC50 [2, 4]: 545 nM"
O=C(NC1CCCc2ccccc21)c1ccc2cc(C(=O)NO)sc2c1 (centres unmarked) [Compound 135],,"IC50 [2, 4]: 836 nM"
O=C(NO)c1cc2cc(CNCC3CCCCC3)ccc2s1 [Compound 164],207 ± 38.1,"IC50 [2, 4]: 545 ± 24 nM"
O=C(NO)c1cc2cc(CNCCc3ccccc3)ccc2s1 [Compound 151],203 ± 14.8,"IC50 [2, 4]: 947 nM"
O=C(NO)c1cc2cc(NC(=O)C(c3ccccc3)c3ccccc3)ccc2s1 [Compound 39],189 ± 4.9,"IC50 [2, 4]: 666 nM"
O=C(NO)c1ccc(NC(=O)c2cccc3ccccc23)s1 [Compound 57],,"IC50 ([1]; Table 2, thiophene backbone): 363 ± 16.9 nM"
O=C(NO)c1cc2cc(CNCC(c3ccccc3)c3ccccc3)ccc2s1 [Compound 152],415 ± 91.6,
O=C(NO)c1cc2cc(CNCc3cccc(Cl)c3)ccc2s1 [Compound 150],144.5 ± 0.7,
O=C(NO)c1cc2ccc(C(=O)N3CCN(Cc4ccccc4)CC3)cc2s1 [Compound 191],453 ± 114,
O=C(NCc1ccccc1)c1ccc(-c2ccc(C(=O)NO)s2)cc1 [Compound 60],,"IC50 ([1]; Table 2, thiophene backbone): 464 ± 65 nM"
O=C(NO)c1ccc(-c2cccc(CN3CCc4ccccc4C3)c2)s1 [Compound 68],,"IC50 ([1]; Table 2, thiophene backbone): 417 nM"
O=C(CCc1ccc(C(=O)NO)s1)Nc1ccccc1 [Compound 80],,"IC50 ([1]; Table 2, thiophene backbone): 481 nM"
O=C(NO)c1ccc(-c2cccc(CN(CCCc3ccccc3)Cc3ccnc4ccccc34)c2)s1 [Compound 75],,"IC50 ([1]; Table 2, thiophene backbone): 920 ± 569 nM"
O=C(NO)c1cc2cc(CNc3cccc(OCc4ccccc4)c3)ccc2s1 [Compound 165],269 ± 63.6,
O=C(NCc1ccc(Cl)cc1)c1ccc2cc(C(=O)NO)sc2c1 [Compound 176],126 ± 31.1,
O=C(NO)c1ccc(-c2cccc(CN(Cc3ccccc3)Cc3ccccc3)c2)s1 [Compound 61],,"IC50 ([1]; Table 2, thiophene backbone): 1000 nM"
O=C(NO)c1cc2ccc(C(=O)N3CCN(c4ccccc4)CC3)cc2s1 [Compound 139],176 ± 13.4,
O=C(/C=C/c1ccc(C(=O)NO)s1)NCc1ccccc1 [Compound 64],,"IC50 ([1]; Table 2, thiophene backbone): 206 nM"
Nc1ccccc1NC(=O)c1cc2ccccc2s1 [Compound 103],1820 ± 508,
O=C(NO)c1cc2ccc(C(=O)N3CCC(Cc4ccccc4)CC3)cc2s1 [Compound 190],170 ± 38.8,
O=C(NC(c1ccccc1)c1ccccc1)c1ccc2cc(C(=O)NO)sc2c1 [Compound 132],284 ± 45.2,

SMILES,"IC50 [1, 3] [nM]",other results
O=C(NO)c1cc2ccc(C(=O)N3CCN(c4ccc(Cl)cc4)CC3)cc2s1 [Compound 158],441 ± 98.2,
COc1ccc(N2CCN(CC(=O)Nc3ccc4cc(C(=O)NO)sc4c3)CC2)cc1 [Compound 124],177 ± 16,
O=C(NC(Cc1ccccc1)c1ccccc1)c1ccc2cc(C(=O)NO)sc2c1 (centres unmarked) [Compound 131],223 ± 11.3,
O=C(NO)c1cc2cc(NS(=O)(=O)c3cccc4ccccc34)ccc2s1 [Compound 27],102 ± 24,
O=C(Nc1nc(-c2ccccc2)cs1)c1ccc2cc(C(=O)NO)sc2c1 [Compound 183],4140 ± 1890,
COc1cccc(-c2ccc(C(=O)NO)s2)c1 [Compound 55],,"IC50 ([1]; Table 2, thiophene backbone): 444 ± 54.4 nM"
CCOC(=O)N1CCN(CC(=O)Nc2ccc3cc(C(=O)NO)sc3c2)CC1 [Compound 122],163 ± 35.2,
O=C(/C=C/c1ccc(C(=O)NO)s1)NCCc1ccccc1 [Compound 65],,"IC50 ([1]; Table 2, thiophene backbone): 41 nM"
CN(O)C(=O)c1cc2ccc(NC(=O)Cc3ccccc3)cc2s1 [Compound 102],14400,
CC(C)C(=O)Nc1ccc2sc(C(=O)NO)cc2c1 [Compound 35],149 ± 23.3,
O=C(NO)c1cc2cc([N+](=O)O)ccc2s1 [Compound 22],1740 ± 63.6,
O=C(NO)c1ccc(-c2cccc(CN(CCc3ccccc3)Cc3cnc4ccccc4c3)c2)s1 [Compound 72],,"IC50 ([1]; Table 2, thiophene backbone): 570 nM"
O=C(NO)c1cc2cc(N(Cc3ccccc3)Cc3ccccc3)ccc2s1 [Compound 20],1650 ± 1160,
O=C(NO)c1cc2cc(NS(=O)(=O)Cc3ccccc3)ccc2s1 [Compound 19],119 ± 21.9,
CC(C)C(=O)Nc1ccc2cc(C(=O)NO)sc2c1 [Compound 9],156 ± 33.2,
O=C(NC1CCc2ccccc21)c1ccc2cc(C(=O)NO)sc2c1 (centres unmarked) [Compound 138],922 ± 174,
O=C(CN1CCCN(C(=O)OCc2ccccc2)CC1)Nc1ccc2cc(C(=O)NO)sc2c1 [Compound 121],184 ± 58.2,
CCOC(=O)Nc1ccc2sc(C(=O)NO)cc2c1 [Compound 34],238 ± 2.8,
O=C(NO)c1cc2ccc(C(=O)N3CCCCC3)cc2s1 [Compound 136],424 ± 72.7,
O=C(NO)c1ccc(-c2cccc(CN(CCCc3ccccc3)Cc3ccccc3)c2)s1 [Compound 76],,"IC50 ([1]; Table 2, thiophene backbone): 1010 nM"
O=C(NO)c1ccc(-c2ccccc2)s1 [Compound 54],,"IC50 ([1]; Table 2, thiophene backbone): 219 nM"
O=C(Nc1ccc2sc(C(=O)NO)cc2c1)c1ccccc1 [Compound 3],106 ± 13.4,
O=C(Nc1ccc2cc(C(=O)NO)sc2c1)c1cccnc1 [Compound 29],262 ± 33.9,

# Now from value to molecule, other results behind:
"IC50 [1, 3] [nM]",SMILES,other results
50 ± 11.3,O=C(CN1CCN(c2ccccn2)CC1)Nc1ccc2cc(C(=O)NO)sc2c1 [Compound 108],"IC50 [2, 4]: 442 nM"
23 ± 1.4,COc1ccc(CNCc2ccc3cc(C(=O)NO)sc3c2)cc1 [Compound 187],"IC50 [2, 4]: 56 nM"
36.6 ± 13.2,O=C(CN1CCN(c2ccccc2Cl)CC1)Nc1ccc2cc(C(=O)NO)sc2c1 [Compound 119],"IC50 [2, 4]: 568 ± 227 nM"
57.3 ± 18.5,O=C(CN(CC(=O)Nc1ccccc1)c1ccc2sc(C(=O)NO)cc2c1)Nc1ccccc1 [Compound 177],"IC50 [2, 4]: 259 ± 48.7 nM"
55.5 ± 9.1,COc1cccc(CNCc2ccc3cc(C(=O)NO)sc3c2)c1 [Compound 186],"IC50 [2, 4]: 93 nM"
79.5 ± 0.7,O=C(NO)c1cc2ccc(NC(=O)C(c3ccccc3)c3ccccc3)cc2s1 [Compound 28],"IC50 [2, 4]: 696 nM"
75.5 ± 7.7,COc1ccccc1CNCc1ccc2sc(C(=O)NO)cc2c1 [Compound 147],"IC50 [2, 4]: 201 ± 59.3 nM"
74.5 ± 17.6,CN(C(=O)Cc1ccccc1)c1ccc2cc(C(=O)NO)sc2c1 [Compound 106],"IC50 [2, 4]: 537 ± 124 nM"
72 ± 14.1,CC(C)(C(=O)Nc1ccc2cc(C(=O)NO)sc2c1)c1ccccc1 [Compound 189],"IC50 [2, 4]: 493 nM"
21.5 ± 3.5,O=C(NO)c1cc2ccc(NS(=O)(=O)c3ccc4ccccc4c3)cc2s1 [Compound 14],"IC50 [2, 4]: 917 nM"
6.5 ± 0.7,O=C(CN(CC(=O)Nc1ccccc1)c1ccc2cc(C(=O)NO)sc2c1)Nc1ccccc1 [Compound 178],"IC50 [2, 4]: 200 ± 19.7 nM"
59 ± 7,O=C(CN1CCN(c2ncccn2)CC1)Nc1ccc2cc(C(=O)NO)sc2c1 [Compound 101],"IC50 [2, 4]: 830 ± 393 nM"
79 ± 5.6,COc1ccccc1N1CCN(CC(=O)Nc2ccc3cc(C(=O)NO)sc3c2)CC1 [Compound 107],"IC50 [2, 4]: 309 nM"
92.5 ± 23.3,CCC(C(=O)Nc1ccc2sc(C(=O)NO)cc2c1)c1ccccc1 (centres unmarked) [Compound 86],"IC50 [2, 4]: 836 ± 28.9 nM"
41.5 ± 2.1,CCC(C(=O)Nc1ccc2cc(C(=O)NO)sc2c1)c1ccccc1 (centres unmarked) [Compound 98],"IC50 ([2]; Table 3, concentration inhibiting proliferation of SC9 cells, 48 hours): 225 ± 26.7 nM"
83 ± 21.2,COc1ccc(CC(=O)Nc2ccc3sc(C(=O)NO)cc3c2)cc1 [Compound 96],
53,O=C(NO)c1cc2ccc(CNCc3ccccc3)cc2s1 [Compound 192],
74.5 ± 7.7,O=C(NCCCc1ccccc1)c1ccc2sc(C(=O)NO)cc2c1 [Compound 112],
96.5 ± 34.4,O=C(NO)c1cc2cc(CNCc3ccccc3Cl)ccc2s1 [Compound 149],
46.5 ± 23.3,O=C(NO)c1cc2ccc(NS(=O)(=O)c3ccccc3)cc2s1 [Compound 10],
14,O=C(Cc1cccc(F)c1)Nc1ccc2cc(C(=O)NO)sc2c1 [Compound 50],
76 ± 15.5,COc1ccc(CC(=O)Nc2ccc3sc(C(=O)NO)cc3c2)cc1OC [Compound 85],
52 ± 19.7,O=C(NCc1ccccc1)Nc1ccc2cc(C(=O)NO)sc2c1 [Compound 7],
90 ± 5.6,COc1ccccc1CNC(=O)c1ccc2sc(C(=O)NO)cc2c1 [Compound 166],
59 ± 15.5,O=C(Cc1ccccn1)Nc1ccc2cc(C(=O)NO)sc2c1 [Compound 109],
72,O=C(NCc1ccccc1)Nc1ccc2sc(C(=O)NO)cc2c1 [Compound 40],
35,COc1ccc(CC(=O)Nc2ccc3cc(C(=O)NO)sc3c2)cc1OC [Compound 49],
45 ± 32.5,O=C(NO)c1cc2ccc(NS(=O)(=O)c3ccc(-c4ccccc4)cc3)cc2s1 [Compound 12],
63.5 ± 4.9,O=C(NCc1ccc(Cl)cc1)c1ccc2sc(C(=O)NO)cc2c1 [Compound 171],
